{"source": "patent US20260364079A1", "about": "(Principia Biopharma Inc., priority 2022, published 2026)", "key": {"[1]": {"details": "Phase 2 trial; cited from earlier work"}, "[2]": {"details": "in vivo; cited from earlier work"}, "[3]": {"details": "patients with chronic lymphatic leukemia; cited from earlier work"}, "[4]": {"test_system": "251 kinases", "experiment": "broad kinase enzyme inhibition panel", "format": "biochemical", "details": "1 μM"}, "[5]": {"molecular_target": "BTK (Homo sapiens, UniProt Q06187)", "sequence (Q06187 whole entry)": "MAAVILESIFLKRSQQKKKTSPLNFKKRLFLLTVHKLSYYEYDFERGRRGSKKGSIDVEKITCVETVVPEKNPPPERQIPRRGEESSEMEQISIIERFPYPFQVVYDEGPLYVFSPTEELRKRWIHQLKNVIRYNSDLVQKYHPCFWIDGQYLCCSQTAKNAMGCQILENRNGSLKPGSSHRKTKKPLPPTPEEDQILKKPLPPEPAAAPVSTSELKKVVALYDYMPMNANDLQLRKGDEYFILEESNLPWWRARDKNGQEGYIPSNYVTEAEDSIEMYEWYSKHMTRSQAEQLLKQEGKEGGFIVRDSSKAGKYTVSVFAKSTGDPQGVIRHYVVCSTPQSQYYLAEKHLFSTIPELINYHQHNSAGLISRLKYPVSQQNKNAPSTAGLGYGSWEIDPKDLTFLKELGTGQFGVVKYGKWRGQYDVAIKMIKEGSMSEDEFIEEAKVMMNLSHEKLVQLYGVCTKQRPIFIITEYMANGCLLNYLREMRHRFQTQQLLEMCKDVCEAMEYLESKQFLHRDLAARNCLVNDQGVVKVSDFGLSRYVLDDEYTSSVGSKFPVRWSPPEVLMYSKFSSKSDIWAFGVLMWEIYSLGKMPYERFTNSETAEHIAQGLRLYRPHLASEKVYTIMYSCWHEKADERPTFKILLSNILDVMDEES", "details": "healthy volunteers, cited from earlier work"}}}
{"compound": "C=CC(=O)N1CCC(CNc2ncnc(N)c2-c2ccc(Oc3ccccc3)cc2)CC1", "note": "[evobrutinib]", "values": [{"measurement": "efficacy in multiple sclerosis", "setting": "[1]", "result": "demonstrated efficacy for multiple sclerosis"}]}
{"compound": "C=CC(=O)N1CCC[C@@H](n2nc(-c3ccc(Oc4ccccc4)cc3)c3c(N)ncnc32)C1", "note": "[ibrutinib]", "values": [{"measurement": "activity in other hematological malignancies", "setting": "[2]", "result": "demonstrated activity in other hematological malignancies"}, {"measurement": "sequential episodes of severe autoimmune hemolytic anemia and ITP", "setting": "[3]", "result": "ceased after initiation of treatment with ibrutinib"}, {"measurement": "number of kinases inhibited", "setting": "[4]", "result": 21, "unit": "kinases"}]}
{"compound": "C=CC(=O)Nc1cccc(Nc2nc(Nc3ccc(OCCOC)cc3)ncc2F)c1", "note": "[CC-292]", "values": [{"measurement": "tolerability", "setting": "[5]; doses with 100% occupancy", "result": "well tolerated"}, {"measurement": "occupancy of the BTK enzyme", "setting": "[5]", "result": 100, "unit": "%"}]}
